Assays:
[1] = 101.33 kPa, Liquid, Pycnometric method
[2] = excess molar enthalpy (molar enthalpy of mixing); xn = mol fraction of the nth substance listed; conditions: 297.15 K, 101 kPa, Liquid, Constant Pressure Calorimeter

C1CCNCC1 [piperidine]
[1]
Conditions | mass density [kg/m3]
293.65 K | 873.5
296.05 K | 867.1
298.15 K | 864.6
300.05 K | 856.3
302.65 K | 852.4
304.55 K | 852.6
306.45 K | 852.5
308.25 K | 850.6
310.35 K | 846.3
313.75 K | 842.2
315.15 K | 840.8
317.35 K | 837.7
319.15 K | 835.3
321.15 K | 833.5
323.05 K | 831.4

C1CCNCC1 [piperidine] + O
[2]
Conditions | excess molar enthalpy [kcal/mol]
x2 = 0 | 0
x2 = 0.05 | -0.0853
x2 = 0.09 | -0.123
x2 = 0.15 | -0.18
x2 = 0.21 | -0.268
x2 = 0.25 | -0.35
x2 = 0.3 | -0.4
x2 = 0.35 | -0.437
x2 = 0.4 | -0.461
x2 = 0.45 | -0.475
x2 = 0.5 | -0.511
x2 = 0.55 | -0.532
x2 = 0.6 | -0.53
x2 = 0.65 | -0.522
x2 = 0.7 | -0.495
x2 = 0.75 | -0.469
x2 = 0.93 | -0.234
x2 = 0.96 | -0.159
x2 = 0.99 | -0.0557

c1ccncc1 [pyridine]
[1]
Conditions | mass density [kg/m3]
293.95 K | 981
295.35 K | 979.2
297.25 K | 977.9
299.15 K | 975.3
301.25 K | 972.8
303.25 K | 971.7
305.15 K | 969.9
307.25 K | 967.9
309.25 K | 965.2
311.35 K | 963.6
313.15 K | 961.6
315.35 K | 959.8
317.55 K | 956.3
319.55 K | 953.9
321.15 K | 953.1

c1ccncc1 [pyridine] + O
[2]
Conditions | excess molar enthalpy [kcal/mol]
x2 = 0 | 0
x2 = 0.05 | -0.028
x2 = 0.1 | -0.061
x2 = 0.15 | -0.11
x2 = 0.2 | -0.156
x2 = 0.25 | -0.21
x2 = 0.3 | -0.247
x2 = 0.35 | -0.284
x2 = 0.4 | -0.33
x2 = 0.45 | -0.374
x2 = 0.5 | -0.389
x2 = 0.55 | -0.388
x2 = 0.6 | -0.378
x2 = 0.65 | -0.366
x2 = 0.7 | -0.332
x2 = 0.73 | -0.318
x2 = 0.89 | -0.154
x2 = 0.92 | -0.121
x2 = 0.95 | -0.0804
x2 = 0.98 | -0.0364

O [water] + C1CCNCC1
Conditions | excess molar enthalpy [kcal/mol]
[2], x1 = 1 | 0

O [water] + c1ccncc1
Conditions | excess molar enthalpy [kcal/mol]
[2], x1 = 1 | 0

Source: the NIST ThermoML archive (doi:10.1016/j.fluid.2009.10.018)
